In PubChem BioAssay (NCI):
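Exposure lasted 48 hours, with cells grown in 96-well plates and compounds tested at five concentrations. The concentration for full growth arrest is given as TGI.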 Where a SMILES comes first, the peptide text is derived from it. [ ]: non-standard residue; d: D form. The star is where a group is joined. Phe(4-NO2) = N[CH](Cc1ccc([N+](=O)[O-])cc1)C(=O)O; Boc = CC(C)(C)OC(=O)*; OBn = c1ccc(CO*)cc1

What was measured:
Assay in all cases: NCI tumour cell line growth inhibition, 48 h
T-47D breast = system: T-47D breast
TK-10 renal = system: TK-10 renal
MCF7 breast = system: MCF7 breast
SW-620 colon = system: SW-620 colon
MOLT-4 leukemia = system: MOLT-4 leukemia
NCI-H460 lung = system: NCI-H460 lung
MDA-MB-435 = system: MDA-MB-435
M14 melanoma = system: M14 melanoma
HOP-92 NSCLC = system: HOP-92 NSCLC
HL-60(TB) leukemia = system: HL-60(TB) leukemia

SMILES | TGI (T-47D breast) | TGI (TK-10 renal) | TGI (MCF7 breast) | TGI (SW-620 colon) | TGI (MOLT-4 leukemia) | TGI (NCI-H460 lung) | TGI (MDA-MB-435) | TGI (M14 melanoma) | TGI (HOP-92 NSCLC) | TGI (HL-60(TB) leukemia)
Cn1c(=O)c2c(nc(NCCCCl)n2CC(=O)O)n(C)c1=O | > 100 µM | > 100 µM | > 100 µM | > 100 µM | > 100 µM | > 100 µM | > 100 µM | > 100 µM | > 100 µM | > 100 µM
COc1cc2c(cc1C[N+](C)(C)CSc1ccccc1)-c1ccccc1CC2 | 16.2 µM | 23.1 µM | 16.4 µM | > 41.3 µM | 9.59 µM | 9.43 µM | 12.5 µM | 7.95 µM | 26.2 µM | 2.46 µM
c1ccc(CNc2c3c(nc4ccccc24)CCC3)cc1 | 38.7 µM | 33.6 µM | 30.9 µM | 28.2 µM | 51 µM | 25 µM | 30.6 µM | 27.2 µM | 25.9 µM | 0.146 µM
COc1ccc(N(C(=O)Nc2ccc(Cl)c(Cl)c2)c2ccccc2)cc1 | > 10 µM | > 10 µM | > 10 µM | > 10 µM | > 10 µM | > 10 µM | > 10 µM | > 10 µM | > 10 µM | > 10 µM
O=C(Nc1ccccc1)O/N=C(/CBr)c1ccccc1 | 32.6 µM | 33.8 µM | 40 µM | > 100 µM | > 100 µM | 43.1 µM | 21.5 µM | 28.4 µM | 33.2 µM | 32.5 µM
CCC1C(=O)C[C@H]2[C@@H]3C(O)CC4=CC(=O)CC[C@]4(C)[C@H]3CC[C@]12C (stereo not given in full) | > 50 µM | > 50 µM | > 50 µM | > 50 µM | > 50 µM | > 50 µM | > 50 µM | > 50 µM | > 50 µM | > 50 µM
Cc1c(C)c(C)c(-n2[nH]c(=O)n(C)c2=O)c(C)c1C | > 100 µM | > 100 µM | > 100 µM | > 100 µM | > 100 µM | > 100 µM | > 100 µM | > 100 µM | > 100 µM | > 100 µM
CCOC(C[Se]CC(OCC)OCC)OCC | > 100 µM | > 100 µM | > 100 µM | > 100 µM | > 100 µM | > 100 µM | > 100 µM | > 100 µM | > 100 µM | 76.5 µM
COC(=O)CCC(NC(=O)OC(C)(C)C)C(=O)NC(Cc1ccc([N+](=O)[O-])cc1)C(=O)NCC(=O)OCc1ccccc1 (stereo not given) (Boc-Glu(OMe)-[Phe(4-NO2)]-Gly-OBn; configuration not given here) | > 100 µM | > 100 µM | > 100 µM | > 100 µM | > 100 µM | > 100 µM | > 100 µM | > 100 µM | > 95.1 µM | > 100 µM
CC(C)(C)OC(=O)n1cc(C2CNC(=O)C23CCC(=O)N3Cc2ccccc2)c2ccccc21 (stereo not given) | > 100 µM | 44.4 µM | 80.3 µM | > 100 µM | > 100 µM | 47.6 µM | 42.3 µM | 67.4 µM | 26.7 µM | 82.5 µM
O=[N+]([O-])c1cccc(-c2csc(N=Nc3c(O)[nH]c4ccccc34)n2)c1 | 82.4 µM | 33.9 µM | > 100 µM | > 100 µM | 69.6 µM | 31.8 µM | > 100 µM | > 100 µM | 46.5 µM | 50.2 µM
CCCCOC(=O)C(=O)C(CCC(=O)c1ccc(C)cc1)C(=O)C=C(C)C (stereo not given) | > 100 µM | > 100 µM | > 100 µM | > 100 µM | > 100 µM | > 100 µM | > 100 µM | > 100 µM | > 100 µM | > 100 µM
NCCC(N)C(=O)O (stereo not given) | > 100 µM | > 100 µM | > 100 µM | > 100 µM | > 100 µM | > 100 µM | > 100 µM | > 100 µM | > 100 µM | > 100 µM
Cc1ccc(S(=O)(=O)N/C(=C\C=C\c2ccccc2)C(=O)C(C)(C)C)cc1 | > 100 µM | > 100 µM | > 100 µM | > 100 µM | > 100 µM | > 100 µM | > 100 µM | > 100 µM | 71.9 µM | > 100 µM
Cn1ccnc1Sc1ccc(/C=N/NC(=O)c2ccccc2O)cc1[N+](=O)[O-] | > 100 µM | > 100 µM | > 100 µM | > 100 µM | 13.3 µM | > 100 µM | > 100 µM | > 100 µM | > 100 µM | > 100 µM
CC(C)CCCC(C)[C@H]1CCC2[C@@H]3CCC4Cc5nc6c(nc5C[C@]4(C)C3CC[C@@]21C)CC1CC[C@@H]2C(C[C@@H](O)[C@@]3(C)C2C[C@@H]2OC4(CCC(C)CO4)C(C)[C@@H]23)[C@@]1(C)C6 (stereo not given in full) | > 100 µM | > 100 µM | > 100 µM | > 100 µM | > 100 µM | > 100 µM | > 100 µM | > 100 µM | > 100 µM | > 100 µM
